Values after ≈ are worked out from the molar mass of the structure shown. Non-standard residues stand in square brackets, D forms with d. Residues, ends and D or L forms follow the SMILES beside them. *: point of attachment. 12Ado = NCCCCCCCCCCCC(=O)O; Decanoyl = CCCCCCCCCC(=O)*; Orn = NCCC[CH](N)C(=O)O

Data set [1] has as its system resistance—nodulation—division deletion mutant. The data set is described as follows: MIC on efflux mutant. Conditions: Escherichia coli. Format: cell-based. The source says: (§1) The following strains were used for the studies below: Escherichia coli strain ML-35p (American Type Culture Collection [ATCC]; […]. The following gram-positive species was investigated: methicillin-resistant Staphylococcus aureus clinical isolate USA300 10017 (a gift from Dr. Gili Regev-Yochay, Infectious Disease Unit, Sheba Medical Center, Israel). Additional Escherichia coli strains tested include β-lactamase producer 35218; clinical isolate strains 14182, 14384, and U16327; and two K12 isogenic mutants, AG100 and AG100A. Unless otherwise stated, all bacterial cultures were grown overnight in Luria-Bertani broth (LB).
(§2) Minimal inhibitory concentrations (MICs) were determined as previously described. […] MICs were determined by microdilution susceptibility testing in 96-well plates (by Nunc) using inocula of 10^5 bacteria per ml. Cell populations were evaluated by optical density measurements at 620 nm and were calibrated against a set of standards. Hundred (100) μl of a bacterial suspension were added to 100 μl of culture medium (control) or to 100 μl of culture medium containing various tested compound concentrations in 2-fold serial dilutions. Inhibition of proliferation was determined by optical density measurements at 620 nm after an incubation period of 24 hours at 37° C. Data were obtained from ≥2 independent experiments performed in duplicate.

Data set [2] concerns E. coli 25922. Description: Cytoplasmic membrane depolarization (DiSC35). Format: cell-based, Escherichia coli. Conditions: low Compound B concentrations. On the procedure:
Cytoplasmic membrane depolarization measurements were assessed by monitoring the displacement of 3,39-dipropylthiadicarbocyanine iodide (DiSC35), a lipophilic potentiometric dye. Mid-logarithmic phase E. coli 25922 at OD 0.6 nm was centrifuged for 5 min at 15,000 g. The pellet was washed twice with 5 mM HEPES containing 5 mM glucose and 2 mM EDTA before addition of DiSC35 ([…]) and quenching at room temperature in the dark for 1 hour. KCl was then added (100 mM) and the suspension incubated overnight (4° C.). One hundred eighty microliters of this bacterial suspension was placed in a black 96-well plate, and fluorescence was recorded until signal stabilization (excitation 620 nm, emission 680 nm). Thereafter […] of the tested compound was added and the fluorescence recorded for up to 30 minutes at 37° C. with shaking. Data were obtained from at least 2 independent experiments performed in duplicate.
(FU denotes fluorescence units; triangles denote Compound B, circles denote PMB, squares denote untreated control; error bars=SD).

A further data set concerns K. pneumoniae. The data set is described as follows: Minimal bactericidal concentration. It is filed as cell-based. The following applies: Klebsiella pneumoniae.
Data set [3] has as its system wild-type isogenic strain. Description: MIC on wild-type isogenic strain. It is filed as cell-based. The following applies: Escherichia coli, data not shown.
From the text: as §1, §2

Another data set has as its system E. coli. The data set is described as follows: Minimal bactericidal concentration. It is filed as cell-based. The following applies: Escherichia coli.
In data set [4] the test system is Escherichia coli 25922. Description: Serum survival assay. Format: cell-based. Here is the method: (§3) Serum survival assays were performed using fresh serum from normal mice or human serum from the Israel Blood Bank; samples were pooled and stored in aliquots at −80° C. until use. Time-dependent killing was determined in a final volume of 125 μL consisting of 112.5 μL of serum containing either a tested compound, egg white lysozyme (Amresco), lactoferrin (Vivinal lactoferrin FD; DMV International, Delhi, N.Y.), anti-murine C5/C5a antibody (25 μg/mL; ab194637; Abcam), or their combination, as specified. These solutions were supplemented with 12.5 μL of bacteria suspended in PBS at the desired concentration. After the specified time points of exposure, cultures were subjected to serial 10-fold dilutions in saline (0.85% NaCl) and plated for bacterial enumeration after incubation at 37° C. for an additional 24 hours. In heat-treated experiments, sera were incubated at 56° C. for 30 minutes for protein inactivation. Data were obtained from 3 independent experiments.

Data set [5] deals with Klebsiella pneumoniae 1287. Description: Serum survival assay. Format: cell-based. Conditions: 10 μM Compound B. On the procedure:
as §3

A further data set is described as follows: Hemolytic assay. Conditions: fresh mouse red blood cells (1%); hemolysis of 50% of mouse red blood cells (1%) after 3 hours in PBS; read-out: LC50, fifty percent lethal concentration (hemolysis). Format: cell-based. Here is the method:
Organization of the compounds in aqueous solution was assessed by light-scattering measurements in phosphate buffered saline (PBS; 10 mM Na2HPO4, 150 mM NaCl, pH=7.0). Hemolytic assays were performed as described elsewhere, using fresh mouse red blood cells.
The mean value (±SD) is shown for Compound C; Minimum inhibitory concentration (MIC) of compounds required to inhibit bacterial proliferation after overnight incubation.

Data set [6] in a line: Charge at physiological pH (Q). Format: physicochemical.
Data set [7] has as its system Escherichia coli 25922. The data set is described as follows: Checkerboard assay with lysozyme in broth medium. Format: cell-based. On the procedure:
(§4) Inhibition was determined after 24 hours of incubation.

Data set [8] deals with Klebsiella pneumoniae 1287. The data set is described as follows: Checkerboard assay with lysozyme in broth medium. It is filed as cell-based. The following applies: growth medium, 2.5, 5, 10 μM Compound B combined with lysozyme, 24 hours. On the procedure:
as §4

The test system of data set [9] is Escherichia coli 25922. The data set is described as follows: Mouse thigh infection model. It is filed as in vivo. The following applies: normal mice inoculated intramuscularly, treated s.c. 1 hour thereafter, CFU 24 hours post-treatment. Here is the method:
(§5) Mouse thigh infection model was afforded from normal ICR mice, which were inoculated intramuscularly and treated subcutaneously 1 hour thereafter with a tested compound or polymyxin B (PMB; Sigma-Aldrich) as described elsewhere. P values were calculated using a 1-tailed t test (assuming unequal variance). A P value of <0.05 is considered statistically significant.

For data set [10], the system named is Klebsiella pneumoniae 1287. Description: Mouse thigh infection model. Format: in vivo. The following applies: normal mice inoculated intramuscularly, treated s.c. 1 hour thereafter. On the procedure:
as §5

A short description of data set [11]: Hydrophobicity (H) by HPLC elution from C18 column. Format: physicochemical. The following applies: percentage of acetonitrile required for elution.
For the next data set, the system named is K. pneumoniae 1287. The data set is described as follows: Growth kinetics by absorbance at 620 nm. Format: cell-based, Klebsiella pneumoniae. The following applies: 10 μM Compound B, culture medium. On the procedure:
(§6) FIGS. 6A-B present growth kinetics assessed by measuring the absorbance at 620 nm of E. coli 25922 (FIG. 6A) and K. pneumoniae 1287 (FIG. 6B) in absence or presence of the 10 μM of Compound B (circles denote vehicle control, triangles denote Compound B; error bars represent standard deviations).

Data set [12] concerns E. coli 25922. Description: Growth kinetics by absorbance at 620 nm. The following applies: 10 μM Compound B, culture medium. It is filed as cell-based, Escherichia coli. Here is the method: as §6

Take `CCCCCCCCCC(=O)NC(CCCN)C(=O)NC(CCCN)C(=O)NCCCCCCCCCCCC(=O)NC(CCCN)C(N)=O` (centres unmarked) [Compound B] (Decanoyl-[Orn][Orn][12Ado][Orn]-NH2; configuration not given here): the MIC is 6.3 µM (≈ 4.48 µg/mL) in [1] and greater than 50 µM in [3]. Further, the “CM depolarization (DiSC35 fluorescence)” value in the data set on E. coli 25922 [2] is “partial depolarization of the CM”. The MBC with K. pneumoniae and with E. coli was greater than 50 µM in each case. The inhibition at 10 µM turned out to be 74% in the data set on Escherichia coli 25922 [4] (Escherichia coli, 25922, 80% mouse serum, 10 μM Compound B, 3 h, read-out: growth inhibition in mouse serum) and 48% in data set [5] (Klebsiella pneumoniae, 1287, 80% mouse serum, 3 h, read-out: growth inhibition in mouse serum). Also, the “antibacterial effect in human serum” value in the data set with Escherichia coli 25922 [4] (10 μM Compound B, absence of exogenous lysozyme) was “significant growth inhibition”; in the data set with Escherichia coli 25922 [4] (10 μM Compound B, presence of exogenous lysozyme (18 μM)), “potent bactericidal effect”; in data set [5] (absence of exogenous lysozyme), “significant growth inhibition”; in data set [5] (presence of exogenous lysozyme (18 μM)) it was “potent bactericidal effect”. The “growth inhibition in serum obtained from treated mice” value with Escherichia coli 25922 [4] (mouse serum obtained 1 hour after subcutaneous administration ([…]), 3 h incubation) stood at 80%. Further, the “E. coli counts (final, from 4 log)” value in the data set with Escherichia coli 25922 [4] (mouse serum, 10 μM Compound B plus 18 μM lysozyme) was determined as 1.7 log CFU/mL; with Escherichia coli 25922 [7] (medium, 10 μM Compound B plus 18 μM lysozyme) it was 9 log CFU/mL. The CC50 at 3 h in the data set “Hemolytic assay” was greater than 100 µM. Also, in data set [6], the “Q, charge at physiological pH” value turned out to be 3. Moreover, the “growth inhibition in combination with lysozyme” value with Escherichia coli 25922 [7] (growth medium, 2.5, 5, 10 μM Compound B combined with lysozyme, 24 hours) is listed as “dose-dependent synergistic growth inhibition”; in data set [8], “dose-dependent synergistic growth inhibition”. Further, the “reduction of the number of inoculated E. coli” value in the data set with Escherichia coli 25922 [9] is 80%. The “effect on proliferation in thigh” value in data set [10] is recorded as “significantly inhibited proliferation”. The “H, hydrophobicity” value in data set [11] was 43%. The “growth kinetics in presence vs absence of compound” value in the data set with K. pneumoniae 1287 and in the data set with E. coli 25922 [12] was “practically identical curves” each time.

For the origin of these results see patent US20200399308A1, “COMPOUNDS AND METHODS FOR ELICITING ANTIMICROBIAL ACTIVITY” (Technion Research & Development Foundation Limited, priority 2018, published 2020).
